Assay results published in US20100130737A1, “Regulating Agent of GPR34 Receptor Function” (TAKEDA PHARMACEUTICAL COMPANY LIMITED, priority 2005, published 2010).
Where a name gives a salt, the structure may show the parent alone.

`O=C(CN1CCN(c2ccccc2)CC1)NC1(C(=O)O)Cc2ccc(-c3ccc(Cl)cc3)cc2C1` (centres unmarked) [Example B124, 5-(4-Chlorophenyl)-2-{[(4-phenylpiperazine-1-yl)acetyl]amino)indan-2-carboxylic acid] showed a melting point of 247 °C. For `O=C(Cc1ccc(OCc2ccc(Cl)cc2)cc1)NC1(C(=O)O)Cc2ccc(-c3ccc(Cl)cc3)cc2C1` (centres unmarked) [Example B143, 2-[({4-[(4-Chlorobenzyl)oxy]phenyl}acetyl)amino]-5-(4-chlorophenyl)indan-2-carboxylic acid], the melting point was 230 to 232 °C. `Cc1nc2ccccc2n1CC(=O)NC1(C(=O)O)Cc2ccc(-c3ccc(Cl)cc3)cc2C1` (centres unmarked) (as salt: hydrochloride) [Example B159, 5-(4-Chlorophenyl)-2-{[(2-methyl-1H-benzimidazol-1-yl)acetyl]amino}indan-2-carboxylic acid hydrochloride] showed a melting point of 284 to 285 °C. In the case of `O=C(Cc1ccc(OCc2ccccc2)cc1)Nc1c(C(=O)O)oc2cc(-c3ccc(Cl)cc3)ccc12` [Example A23, 3-({[4-(Benzyloxy)phenyl]acetyl}amino)-6-(4-chlorophenyl)-1-benzofuran-2-carboxylic acid], the melting point is reported as 211 to 212 °C. `O=C(NC(Cc1ccc(OCc2cccc(F)c2)cc1)C(=O)O)c1cn2cc(-c3ccc(Cl)cc3)ccc2n1` (centres unmarked) [Example E10] showed a melting point of 252 °C. With `O=C(N[C@@H](Cc1ccc(OCc2ccoc2)cc1)C(=O)O)c1cc2ccc(-c3ccc(Cl)cc3)cc2o1` [Example C151, N-{[6-(4-Chlorophenyl)-1-benzofuran-2-yl]carbonyl}-O-(3-furylmethyl)tyrosine] the melting point was 159 to 160 °C. `O=C(NC(Cc1ccc(OCc2ccccc2)cc1)C(=O)O)c1cn2cc(-c3ccc(OC(F)(F)F)cc3)ccc2n1` (centres unmarked) [Example E44] gave a melting point of 270 to 271 °C. Work on `COc1ccc(-c2ccc3c(c2)CC(NC(=O)Cc2ccc(F)cc2)(C(=O)O)C3)cc1` (centres unmarked) [Example B131, 2-{[(4-Fluorophenyl)acetyl]amino}-5-(4-methoxyphenyl)indan-2-carboxylic acid] yielded a melting point of 227 °C. With `O=C(Cc1ccc(OCc2ccsc2)cc1)NC1(C(=O)O)Cc2ccc(-c3ccc(Cl)cc3)cc2C1` (centres unmarked) [Example B147, 5-(4-Chlorophenyl)-2-({[4-(3-thienylmethoxy)phenyl]acetyl}amino)indan-2-carboxylic acid] the melting point was 224 to 226 °C. Work on `CC(C(=O)NC1(C(=O)O)Cc2ccc(-c3ccc(Cl)cc3)cc2C1)c1ccccc1` (centres unmarked) [Example B139, 5-(4-Chlorophenyl)-2-[(2-phenylpropanoyl)amino]indan-2-carboxylic acid] yielded a melting point of 200 to 201 °C. Compound `Cc1c(C(=O)N[C@H](C(=O)O)c2ccc(OCc3ccccc3)cc2)oc2cc(-c3ccc(Cl)cc3)ccc12` [Example C156, (2S)-[4-(Benzyloxy)phenyl]({[6-(4-chlorophenyl)-3-methyl-1-benzofuran-2-yl]carbonyl}amino)acetic acid] has a melting point of 178 °C. Work on `Nc1ccccc1COc1ccc(CC(=O)NC2(C(=O)O)Cc3ccc(-c4ccc(Cl)cc4)cc3C2)cc1` (centres unmarked) [Example B194, 2-[({4-[(2-Aminobenzyl)oxy]phenyl}acetyl)amino]-5-(4-chlorophenyl)indan-2-carboxylic acid] yielded a melting point of 149 to 150 °C. `O=C(NC(Cc1ccc(OCc2ccccc2F)cc1)C(=O)O)c1cn2cc(-c3ccc(Cl)cc3)ccc2n1` (centres unmarked) [Example E6] gave a melting point of 273 °C. Compound `O=C(Cc1ccc(OCc2cccs2)cc1)NC1(C(=O)O)Cc2ccc(-c3ccc(Cl)cc3)cc2C1` (centres unmarked) [Example B151, 5-(4-Chlorophenyl)-2-({[4-(2-thienylmethoxy)phenyl]acetyl}amino)indan-2-carboxylic acid] has a melting point of 201 °C. In the case of `O=C(CC1CCN(C(=O)Cc2ccc(F)cc2)CC1)NC1(C(=O)O)Cc2ccc(-c3ccc(Cl)cc3)cc2C1` (centres unmarked) [Example B167, 5-(4-Chlorophenyl)-2-[({1-[(4-fluorophenyl)acetyl]piperidin-4-yl}acetyl)amino]indan-2-carboxylic acid], the melting point is reported as 196 °C. For `O=C(NC(Cc1ccc(OCc2ccc(F)cc2)cc1)C(=O)O)c1cn2ccc(C#Cc3ccccc3)cc2n1` (centres unmarked) [Example E62], the melting point was 243 °C (dec.). With `O=C(Nc1ccc(F)cc1)NC1(C(=O)O)Cc2ccc(-c3ccc(Cl)cc3)cc2C1` (centres unmarked) [Example B180, 5-(4-Chlorophenyl)-2-({[(4-fluorophenyl)amino]carbonyl}amino)indan-2-carboxylic acid] the melting point was 177 °C. With `O=C(CCc1ccc(OCc2ccccc2)cc1)Nc1c(C(=O)O)oc2cc(-c3ccc(Cl)cc3)ccc12` [Example A25, 3-({3-[4-(Benzyloxy)phenyl]propanoyl}amino)-6-(4-chlorophenyl)-1-benzofuran-2-carboxylic acid] the melting point was 209 to 210 °C. In the case of `Cc1c(C(=O)NC2(C(=O)O)Cc3cccc(Br)c3C2)oc2cc(-c3ccc(Cl)cc3)ccc12` (centres unmarked) [Example C113, 4-Bromo-2-({[6-(4-chlorophenyl)-3-methyl-1-benzofuran-2-yl]carbonyl}amino)indan-2-carboxylic acid], the melting point is reported as 230 °C. `Cc1ccc(COc2ccc(C[C@H](NC(=O)c3cc4cc(-c5ccc(Cl)cc5)ccc4s3)C(=O)O)cc2)cc1` [Example C134, N-{[5-(4-Chlorophenyl)-1-benzothiophene-2-yl]carbonyl}-O-(4-methylbenzyl)tyrosine] gave a melting point of 208 °C. Work on `O=C(NC1(C(=O)O)Cc2ccc(-c3ccc(Cl)cc3)cc2C1)c1ccc(F)cc1` (centres unmarked) [Example B133, 5-(4-Chlorophenyl)-2-[(4-fluorobenzoyl)amino]indan-2-carboxylic acid] yielded a melting point of 251 °C. `Cc1nc2ccccc2n1Cc1ccc(C(=O)NC2(C(=O)O)Cc3ccc(-c4ccc(Cl)cc4)cc3C2)cc1` (centres unmarked) [Example B157, 5-(4-Chlorophenyl)-2-({4-[(2-methyl-1H-benzimidazol-1-yl)methyl]benzoyl}amino)indan-2-carboxylic acid] showed a melting point of 258 to 259 °C. In the case of `Cc1c(C(=O)NC2(C(=O)O)Cc3ccc(-c4ccc(Cl)cc4)cc3C2)oc2cc(-c3ccc(Cl)cc3)ccc12` (centres unmarked) [Example B129, 5-(4-Chlorophenyl)-2-({[6-(4-chlorophenyl)-3-methyl-1-benzofuran-2-yl]carbonyl}amino)indan-2-carboxylic acid], the melting point is reported as 257 °C. With `O=C(Cc1ccc(NC(=O)c2ccc(F)cc2)cc1)NC1(C(=O)O)Cc2ccc(-c3ccc(Cl)cc3)cc2C1` (centres unmarked) [Example B140, 5-(4-Chlorophenyl)-2-[({4-[(4-fluorobenzoyl)amino]phenyl}acetyl)amino]indan-2-carboxylic acid] the melting point was 252 to 254 °C. In the case of `O=C(/C=C/c1ccc(-c2ccc(Cl)cc2)o1)N[C@@H](Cc1ccc(OCc2ccccc2)cc1)C(=O)O` [Example D4, O-Benzyl-N-{(2E)-3-[5-(4-chlorophenyl)-2-furyl]propa-2-enoyl}tyrosine], the melting point is reported as 224 to 225 °C. Compound `O=C(Cc1ccc(Oc2ccc(F)cc2)cc1)NC1(C(=O)O)Cc2ccc(-c3ccc(Cl)cc3)cc2C1` (centres unmarked) [Example B161, 5-(4-Chlorophenyl)-2-({[4-(4-fluorophenoxy)phenyl]acetyl}amino)indan-2-carboxylic acid] has a melting point of 232 to 234 °C. `O=C(N[C@@H](Cc1ccc(OCc2ccsc2)cc1)C(=O)O)c1cn2cc(-c3ccc(Cl)cc3)ccc2n1` [Example E2, N-{[6-(4-Chlorophenyl)imidazo[1,2-a]pyridin-2-yl]carbonyl}-O-(3-thienylmethyl)-L-tyrosine] gave a melting point of 203 °C. For `O=C(NC(Cc1ccc(OCc2ccccc2)cc1)c1noc(=O)[nH]1)c1cn2cc(-c3ccc(Cl)cc3)ccc2n1` (centres unmarked) [Example E30, N-[2-[4-(Benzyloxy)phenyl]-1-(5-oxo-4,5-dihydro-1,2,4-oxadiazol-3-yl)ethyl]-6-(4-chlorophenyl)imidazo[1,2-a]pyridine-2-carboxamide], the melting point was 167 °C. Work on `COc1ccc(CC(=O)NC2(C(=O)O)Cc3ccc(-c4ccc(Cl)cc4)cc3C2)cc1` (centres unmarked) [Example B173, 5-(4-Chlorophenyl)-2-{[(4-methoxyphenyl)acetyl]amino)indan-2-carboxylic acid] yielded a melting point of 231 to 233 °C. Compound `O=C(Cc1ccc(OCc2cccc(F)c2)cc1)NC1(C(=O)O)Cc2ccc(-c3ccc(Cl)cc3)cc2C1` (centres unmarked) [Example B142] has a melting point of 209 °C. Work on `O=C(Cc1ccc(OCc2ccc(F)cc2)cc1)Nc1c(C(=O)O)oc2cc(-c3ccc(Cl)cc3)ccc12` [Example A24, 6-(4-Chlorophenyl)-3-[({4-[(4-fluorobenzyl)oxy]phenyl}acetyl)amino]-1-benzofuran-2-carboxylic acid] yielded a melting point of 205 to 206 °C. In the case of `O=C(O)CN(Cc1ccc(OCc2ccsc2)cc1)C(=O)c1cn2ccc(-c3ccc(Cl)cc3)cc2n1` [Example E53], the melting point is reported as 187 °C. `O=C(N[C@@H](Cc1ccc(OCc2cccc(F)c2)cc1)C(=O)O)c1cc2cc(-c3ccc(Cl)cc3)ccc2s1` [Example C126, N-{[5-(4-Chlorophenyl)-1-benzothiophene-2-yl]carbonyl}-O-(3-fluorobenzyl) tyrosine] showed a melting point of 184 to 185 °C. With `O=C(N[C@@H](Cc1ccc(OCc2ccoc2)cc1)C(=O)O)c1cn2ccc(-c3ccc(Cl)cc3)cc2n1` [Example E33, N-{[7-(4-Chlorophenyl)imidazo[1,2-a]pyridin-2-yl]carbonyl}-O-(3-furylmethyl)tyrosine] the melting point was 243 °C. For `O=C(O)CN(Cc1ccc(OCc2ccccc2)cc1)C(=O)c1cn2cc(-c3ccc(Cl)cc3)ccc2n1` [Example E39, N-[4-(Benzyloxy)benzyl]-N-{[6-(4-chlorophenyl)imidazo[1,2-a]pyridin-2-yl]carbonyl}glycine], the melting point was 213 to 214 °C. Work on `Cc1c(-c2ccc(Cl)cc2)nc2ccc(C(=O)N[C@@H](Cc3ccc(OCc4ccccc4)cc3)C(=O)O)cn12` [Example E55, O-Benzyl-N-{[2-(4-chlorophenyl)-3-methylimidazo[1,2-a]pyridin-6-yl]carbonyl}tyrosine] yielded a melting point of 244 to 245 °C. `O=C(Cc1ccc(Cl)cc1)NC1(C(=O)O)Cc2ccc(-c3ccc(Cl)cc3)cc2C1` (centres unmarked) [Example B127, 5-(4-Chlorophenyl)-2-{[(4-chlorophenyl)acetyl]amino}indan-2-carboxylic acid] gave a melting point of 251 °C. Work on `Cc1c(C(=O)N[C@@H](Cc2ccc(OCc3ccoc3)cc2)C(=O)O)oc2ccc(-c3ccc(Cl)cc3)cc12` [Example C150, N-{[5-(4-Chlorophenyl)-3-methyl-1-benzofuran-2-yl]carbonyl}-O-(3-furylmethyl)tyrosine] yielded a melting point of 196 to 197 °C.
